US12371454B2, “Cyclic peptide compound having Kras inhibitory action” (priority 2019, dated 2025)
pIC50: −log10 of the molar value. Positions of bridges follow the written chain, without caps; N, C: chain ends. Non-standard residues stand in square brackets, D forms with d. Residues, ends and D or L forms follow the SMILES beside them. *: point of attachment. hPhe(3-Cl-4-CF3) = N[C@@H](CCc1ccc(C(F)(F)F)c(Cl)c1)C(=O)O; hPhe(3-F,4-CF3) = N[C@@H](CCc1ccc(C(F)(F)F)c(F)c1)C(=O)O; NMePhe(4-CF3) = CN[C@@H](Cc1ccc(C(F)(F)F)cc1)C(=O)O; 3Oxa8azabicyclo(3.2.1)octane = C1CC2COCC1N2*; NMeAla(cPent) = CN[C@@H](CC1CCCC1)C(=O)O; NMeGly(cPent) = CN[C@H](C(=O)O)C1CCCC1; NMeCha = CN[C@@H](CC1CCCCC1)C(=O)O; NMehLeu = CN[C@@H](CCC(C)C)C(=O)O; NEtLeu = CCN[C@@H](CC(C)C)C(=O)O; NMeI = CC[C@H](C)[C@H](NC)C(=O)O; NMeD = CN[C@@H](CC(=O)O)C(=O)O; NMeL = CN[C@@H](CC(C)C)C(=O)O; Azetidin(1-yl) = C1CN(*)C1; NMeS = CN[C@@H](CO)C(=O)O; Morpholide = C1CN(*)CCO1; NMeA = CN[C@@H](C)C(=O)O; Pyrrolidide = C1CCN(*)C1; Ac5c = NC1(C(=O)O)CCCC1; Aze = O=C(O)[C@@H]1CCN1; NEtG = CCNCC(=O)O; Sar = CNCC(=O)O; Propyl = CCC*

Test system: Human pancreatic cancer cell line AsPC-1
Test: Measurement of AsPC-1 cell growth inhibition (AsPC-1 CGI)
Assay type: cell-based
Settings: 96 h
Procedure, shortened: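 AsPC-1 cells in 15% FBS RPMI-1640 were exposed to test compound for 96 hours at 37° C, with CellTiter-Glo as endpoint.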

Row | SMILES | pIC50
1 | CC[C@H](C)[C@@H]1NC(=O)[C@H](CC(C)C)N(C)C(=O)C[C@@H](C(=O)N2CCOCC2)N(C)C(=O)[C@H](C2CCCC2)N(C)C(=O)C2(CCCC2)NC(=O)[C@@H]2CCCN2C(=O)[C@H](CCc2ccc(C(F)(F)F)c(Cl)c2)NC(=O)CN(C)C(=O)[C@H](CC2CCCCC2)N(C)C(=O)[C@@H]2CCN2C(=O)[C@H](C)NC1=O [Compound 1137] ([NMeL]IA[Aze][NMeCha][Sar][hPhe(3-Cl-4-CF3)]P[Ac5c][NMeGly(cPent)][NMeD]-Morpholide; lactam N-11) | 7.30 to 7.70
2 | CC[C@H](C)[C@@H]1NC(=O)[C@H](CC(C)C)N(CC)C(=O)C[C@@H](C(=O)N2CCOCC2)N(C)C(=O)[C@H](C2CCCC2)N(C)C(=O)C2(CCCC2)NC(=O)[C@@H]2CCCN2C(=O)[C@H](CCc2ccc(C(F)(F)F)c(Cl)c2)NC(=O)CN(C)C(=O)[C@H](C2CCCC2)N(C)C(=O)[C@@H]2CCN2C(=O)[C@H](C)NC1=O [Compound 1140] ([NEtLeu]IA[Aze][NMeGly(cPent)][Sar][hPhe(3-Cl-4-CF3)]P[Ac5c][NMeGly(cPent)][NMeD]-Morpholide; lactam N-11) | 6.30 to 7.00
3 | CC[C@H](C)[C@@H]1NC(=O)[C@H](CC(C)C)N(C)C(=O)C[C@@H](C(=O)N2CCOCC2)N(C)C(=O)[C@H](C2CCCC2)N(C)C(=O)C2(CCCC2)NC(=O)[C@@H]2CCCN2C(=O)[C@H](CCc2ccc(C(F)(F)F)c(Cl)c2)NC(=O)CN(CC)C(=O)[C@H](C2CCCC2)N(C)C(=O)[C@@H]2CCN2C(=O)[C@H](C)N(C)C1=O [Compound 1142] ([NMeL]I[NMeA][Aze][NMeGly(cPent)][NEtG][hPhe(3-Cl-4-CF3)]P[Ac5c][NMeGly(cPent)][NMeD]-Morpholide; lactam N-11) | 7.30 to 7.70
4 | CC[C@H](C)[C@@H]1NC(=O)[C@H](CC2CCCC2)N(C)C(=O)C[C@@H](C(=O)N2CCOCC2)N(C)C(=O)[C@H](C2CCCC2)N(C)C(=O)C2(CCCC2)NC(=O)[C@@H]2CCCN2C(=O)[C@H](CCc2ccc(C(F)(F)F)c(Cl)c2)NC(=O)CN(C)C(=O)[C@H](C2CCCC2)N(C)C(=O)[C@@H]2CCN2C(=O)[C@H](C)NC1=O [Compound 1145] ([NMeAla(cPent)]IA[Aze][NMeGly(cPent)][Sar][hPhe(3-Cl-4-CF3)]P[Ac5c][NMeGly(cPent)][NMeD]-Morpholide; lactam N-11) | 6.30 to 7.00
5 | CC[C@H](C)[C@@H]1NC(=O)[C@H](CC(C)C)N(CC)C(=O)C[C@@H](C(=O)N2CCCC2)N(C)C(=O)[C@H]([C@@H](C)CC)N(C)C(=O)C2(CCCC2)NC(=O)[C@@H]2CCCN2C(=O)[C@H](CCc2ccc(C(F)(F)F)c(Cl)c2)NC(=O)CN(C)C(=O)[C@H](Cc2ccc(C(F)(F)F)cc2)N(C)C(=O)[C@@H]2CCN2C(=O)[C@H](C)NC1=O [Compound 1146] ([NEtLeu]IA[Aze][NMePhe(4-CF3)][Sar][hPhe(3-Cl-4-CF3)]P[Ac5c][NMeI][NMeD]-Pyrrolidide; lactam N-11) | 7.30 to 7.70
6 | CCCOC[C@H]1C(=O)N(C)CC(=O)N[C@@H](CCc2ccc(C(F)(F)F)c(Cl)c2)C(=O)N2CCC[C@H]2C(=O)NC2(CCCC2)C(=O)N(C)[C@@H](C2CCCC2)C(=O)N(C)[C@H](C(=O)N2C3CCC2COC3)CC(=O)N(C)[C@@H](CCC(C)C)C(=O)N[C@@H]([C@@H](C)CC)C(=O)N(C)[C@@H](C)C(=O)N2CC[C@H]2C(=O)N1C [Compound 1154] ([NMehLeu]I[NMeA][Aze][NMeS](Propyl)[Sar][hPhe(3-Cl-4-CF3)]P[Ac5c][NMeGly(cPent)][NMeD]-{3Oxa8azabicyclo(3.2.1)octane}; lactam N-11) | 7.30 to 7.70
7 | CC[C@H](C)[C@@H]1NC(=O)[C@H](CC(C)C)N(C)C(=O)C[C@@H](C(=O)N2CCCC2)N(C)C(=O)[C@H]([C@@H](C)CC)N(C)C(=O)C2(CCCC2)NC(=O)[C@@H]2CCCN2C(=O)[C@H](CCc2ccc(C(F)(F)F)c(Cl)c2)NC(=O)CN(CC)C(=O)[C@H](Cc2ccc(C(F)(F)F)cc2)N(C)C(=O)[C@@H]2CCN2C(=O)[C@H](C)N(C)C1=O [Compound 1159] ([NMeL]I[NMeA][Aze][NMePhe(4-CF3)][NEtG][hPhe(3-Cl-4-CF3)]P[Ac5c][NMeI][NMeD]-Pyrrolidide; lactam N-11) | 7.30 to 7.70
8 | CCCOC[C@H]1C(=O)N(C)CC(=O)N[C@@H](CCc2ccc(C(F)(F)F)c(Cl)c2)C(=O)N2CCC[C@H]2C(=O)NC2(CCCC2)C(=O)N(C)[C@@H](C2CCCC2)C(=O)N(C)[C@H](C(=O)N2C3CCC2COC3)CC(=O)N(CC)[C@@H](CC(C)C)C(=O)N[C@@H]([C@@H](C)CC)C(=O)N[C@@H](C)C(=O)N2CC[C@H]2C(=O)N1C [Compound 1167] ([NEtLeu]IA[Aze][NMeS](Propyl)[Sar][hPhe(3-Cl-4-CF3)]P[Ac5c][NMeGly(cPent)][NMeD]-{3Oxa8azabicyclo(3.2.1)octane}; lactam N-11) | 6.30 to 7.00
9 | CCCOC[C@H]1C(=O)N(C)CC(=O)N[C@@H](CCc2ccc(C(F)(F)F)c(Cl)c2)C(=O)N2CCC[C@H]2C(=O)NC2(CCCC2)C(=O)N(C)[C@@H](C2CCCC2)C(=O)N(C)[C@H](C(=O)N2C3CCC2COC3)CC(=O)N(CC)[C@@H](CC(C)C)C(=O)N[C@@H]([C@@H](C)CC)C(=O)N(C)[C@@H](C)C(=O)N2CC[C@H]2C(=O)N1C [Compound 1193] ([NEtLeu]I[NMeA][Aze][NMeS](Propyl)[Sar][hPhe(3-Cl-4-CF3)]P[Ac5c][NMeGly(cPent)][NMeD]-{3Oxa8azabicyclo(3.2.1)octane}; lactam N-11) | 7.30 to 7.70

Second part, the molecule after the results:

Row | pIC50 | SMILES
10 | 7.30 to 7.70 | CC[C@H](C)[C@@H]1NC(=O)[C@H](CC(C)C)N(C)C(=O)C[C@@H](C(=O)N(C)C)N(C)C(=O)[C@H](C2CCCC2)N(C)C(=O)C2(CCCC2)NC(=O)[C@@H]2CCCN2C(=O)[C@H](CCc2ccc(C(F)(F)F)c(F)c2)NC(=O)CN(C)C(=O)[C@H](CC2CCCCC2)N(C)C(=O)[C@@H]2CCN2C(=O)[C@H](C)NC1=O [Compound 1164] ([NMeL]IA[Aze][NMeCha][Sar][hPhe(3-F,4-CF3)]P[Ac5c][NMeGly(cPent)][NMeD]-NMe2; lactam N-11)
11 | 7.30 to 7.70 | CC[C@H](C)[C@@H]1NC(=O)[C@H](CCC(C)C)N(C)C(=O)C[C@@H](C(=O)N2CCOCC2)N(C)C(=O)[C@H](C2CCCC2)N(C)C(=O)C2(CCCC2)NC(=O)[C@@H]2CCCN2C(=O)[C@H](CCc2ccc(C(F)(F)F)c(Cl)c2)NC(=O)CN(C)C(=O)[C@H](CC2CCCCC2)N(C)C(=O)[C@@H]2CCN2C(=O)[C@H](C)NC1=O [Compound 1171] ([NMehLeu]IA[Aze][NMeCha][Sar][hPhe(3-Cl-4-CF3)]P[Ac5c][NMeGly(cPent)][NMeD]-Morpholide; lactam N-11)
12 | 7.00 to 7.30 | CC[C@H](C)[C@@H]1NC(=O)[C@H](CC2CCCC2)N(C)C(=O)C[C@@H](C(=O)N2CCOCC2)N(C)C(=O)[C@H](C2CCCC2)N(C)C(=O)C2(CCCC2)NC(=O)[C@@H]2CCCN2C(=O)[C@H](CCc2ccc(C(F)(F)F)c(Cl)c2)NC(=O)CN(C)C(=O)[C@H](CC2CCCCC2)N(C)C(=O)[C@@H]2CCN2C(=O)[C@H](C)NC1=O [Compound 1176] ([NMeAla(cPent)]IA[Aze][NMeCha][Sar][hPhe(3-Cl-4-CF3)]P[Ac5c][NMeGly(cPent)][NMeD]-Morpholide; lactam N-11)
13 | 7.30 to 7.70 | CC[C@H](C)[C@@H]1NC(=O)[C@H](CC(C)C)N(CC)C(=O)C[C@@H](C(=O)N2CCC2)N(C)C(=O)[C@H](C2CCCC2)N(C)C(=O)C2(CCCC2)NC(=O)[C@@H]2CCCN2C(=O)[C@H](CCc2ccc(C(F)(F)F)c(Cl)c2)NC(=O)CN(C)C(=O)[C@H](CC2CCCCC2)N(C)C(=O)[C@@H]2CCN2C(=O)[C@H](C)N(C)C1=O [Compound 1198] ([NEtLeu]I[NMeA][Aze][NMeCha][Sar][hPhe(3-Cl-4-CF3)]P[Ac5c][NMeGly(cPent)][NMeD]-{Azetidin(1-yl)}; lactam N-11)
